Among the data in the Kinase Knowledgebase extract (Sharma et al. 2016) are Ki values, retold here.

Some results are limits rather than exact numbers.

The assay deals with PIK3CG (human) (UniProt P48736). The assay can be described thus: Assessment of PIK3CG Kinase Activity.
PIK3CG (human), sequence (P48736 whole entry, looked up): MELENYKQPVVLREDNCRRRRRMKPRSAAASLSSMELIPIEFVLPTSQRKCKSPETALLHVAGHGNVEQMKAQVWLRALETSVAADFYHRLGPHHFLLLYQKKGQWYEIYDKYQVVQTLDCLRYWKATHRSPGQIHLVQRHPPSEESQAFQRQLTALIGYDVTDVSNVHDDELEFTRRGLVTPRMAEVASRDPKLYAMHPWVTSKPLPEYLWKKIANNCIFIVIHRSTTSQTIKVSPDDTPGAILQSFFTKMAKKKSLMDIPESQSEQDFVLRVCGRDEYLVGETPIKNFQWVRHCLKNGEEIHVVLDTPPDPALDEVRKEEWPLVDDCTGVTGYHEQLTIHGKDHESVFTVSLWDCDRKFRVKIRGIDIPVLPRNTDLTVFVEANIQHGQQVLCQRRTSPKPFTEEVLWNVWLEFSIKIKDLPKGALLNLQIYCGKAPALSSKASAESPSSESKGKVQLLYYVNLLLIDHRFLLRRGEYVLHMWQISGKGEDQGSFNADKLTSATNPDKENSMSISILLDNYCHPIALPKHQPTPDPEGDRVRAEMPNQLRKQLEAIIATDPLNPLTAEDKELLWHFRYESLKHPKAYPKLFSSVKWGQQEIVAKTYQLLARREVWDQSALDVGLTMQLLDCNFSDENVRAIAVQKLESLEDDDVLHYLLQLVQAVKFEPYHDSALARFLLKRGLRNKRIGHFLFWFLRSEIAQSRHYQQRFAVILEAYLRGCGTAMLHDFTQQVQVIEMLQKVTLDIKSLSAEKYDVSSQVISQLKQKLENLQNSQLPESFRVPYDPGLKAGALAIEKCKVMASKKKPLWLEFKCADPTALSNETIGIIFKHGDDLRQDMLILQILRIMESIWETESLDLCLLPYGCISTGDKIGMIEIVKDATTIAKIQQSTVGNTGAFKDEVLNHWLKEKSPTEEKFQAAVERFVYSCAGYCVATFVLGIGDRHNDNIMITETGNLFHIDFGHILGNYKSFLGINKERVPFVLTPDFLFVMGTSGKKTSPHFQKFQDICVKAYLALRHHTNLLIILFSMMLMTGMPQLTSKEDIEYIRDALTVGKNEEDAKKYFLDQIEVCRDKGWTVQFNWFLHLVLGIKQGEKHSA
The compound `CC(=O)Nc1nc(C)c(C#Cc2ccc(Cl)nc2)s1` came in with a Ki of 50 to 250 nM.
`COC(=O)c1ccn2cc(CCNC(=O)Nc3nc(C)c(C#Cc4ccncc4)s3)nc2c1` yielded a Ki of 50 to 250 nM.
In turn, `COc1cc(C#Cc2sc(NC(=O)NCCOCC3CC3)nc2C)cc(OC)c1` registered a Ki of 50 to 250 nM.
`COc1ccc(C#Cc2sc(NC(C)=O)nc2C)cc1` gave a Ki of 50 to 250 nM.
The result for `Cc1nc(NC(=O)NCCc2ccccn2)sc1C#Cc1ccncc1` reads under 50 nM.
The result for `CCc1ccc(CNC(=O)Nc2nc(C)c(C#Cc3ccncc3)s2)nc1` reads under 50 nM.
The compound `COc1cccc(C#Cc2sc(NC(=O)NCCOCC3CC3)nc2C)c1` had an inhibition constant (Ki) of 50 to 250 nM.
For the compound `Cc1nc(NC(=O)NCCOCC2CC2)sc1C#Cc1ccnn1C`, the Ki lay within 50 to 250 nM.
The compound `CC(=O)Nc1nc(C)c(C#Cc2cccc(C)c2)s1` returned a Ki of 50 to 250 nM.
The value for `Cc1cccc(NC(=O)CC(=O)Nc2nc(C)c(C#Cc3ccncc3)s2)c1` was 50 to 250 nM; that for `CCOC(=O)CCCC(=O)Nc1nc(C)c(C#Cc2ccncc2)s1` was 50 to 250 nM.
As to `Cc1nc(NC(=O)NCCOCC(F)(F)F)sc1C#Cc1ccncc1`, the Ki is 50 to 250 nM.
Compound `Cc1nc(NC(=O)NCCC(=O)c2ccccc2)sc1C#Cc1ccncc1` came in with a Ki of under 50 nM.
Consider `Cc1nc(NC(=O)NCCOCC2CC2)sc1C#Cc1ccnc(F)c1`, for which the inhibition constant Ki is under 50 nM.
On to `Cc1nc(NC(=O)NCCc2cn(CC(F)F)cn2)sc1C#Cc1cccnc1`, for which the Ki is under 50 nM.
In the case of `Cc1nc(NC(=O)NCCOCC2CC2)sc1C#Cc1ccc2nccnc2c1`, the inhibition constant (Ki) is under 50 nM.
`CCCO[C@@H](C)CNC(=O)Nc1nc(C)c(C#Cc2cncc(OC)c2)s1` came in with an inhibition constant (Ki) of under 50 nM.
The compound `Cc1nc(NC(=O)CCCC(=O)NCC(F)(F)F)sc1C#Cc1ccncc1` gave a Ki of 50 to 250 nM.
Turning to `Cc1nc(NC(=O)NCCOc2ccccc2F)sc1C#Cc1ccncc1`, the inhibition constant (Ki) was under 50 nM.
`Cc1nc(NC(=O)NCCOCC2CC2)sc1C#Cc1ccc2nccn2c1`: the Ki is under 50 nM.
For `CC(=O)NCC(=O)Nc1nc(C)c(C#Cc2ccncc2)s1`, the Ki is under 50 nM.
Consider `Cc1nc(NC(=O)NCCn2cnc(C(F)(F)F)c2)sc1C#Cc1ccncc1`, for which the inhibition constant Ki lay in the range of 50 to 250 nM.
With `Cc1nc(NC(=O)NC[C@H](C)OCC2CC2)sc1C#Cc1cncc(F)c1`, the Ki is under 50 nM.
Turning to `Cc1cccc(OCCNC(=O)Nc2nc(C)c(C#Cc3ccncc3)s2)c1`, the Ki is under 50 nM.
The value for `Cc1nc(NC(=O)NCCn2cc(Cl)cn2)sc1C#Cc1ccncc1` was under 50 nM; that for `COc1ccccc1OCCNC(=O)Nc1nc(C)c(C#Cc2ccncc2)s1` was under 50 nM.
The value for `Cc1nc(NC(=O)CNC(=O)c2ccccn2)sc1C#Cc1cccnc1` was under 50 nM.
`Cc1nc(NC(=O)CCNC(=O)c2ccccn2)sc1C#Cc1cccnc1` gave a Ki of under 50 nM.
With `CCn1c(C)nc(CCNC(=O)Nc2nc(C)c(C#Cc3ccncc3)s2)c1Cl`, the inhibition constant (Ki) is under 50 nM.
The result for `Cc1cc(O)nc(CCNC(=O)Nc2nc(C)c(C#Cc3ccncc3)s2)n1` reads 50 to 250 nM; that for `CCCCOCCCNC(=O)Nc1nc(C)c(C#Cc2ccncc2)s1`, under 50 nM; that for `Cc1nc(NC(=O)NCCOC(=O)c2ccccc2)sc1C#Cc1ccncc1`, under 50 nM.
In turn, `COc1cc(C#Cc2sc(NC(=O)NCCOc3ccncc3)nc2C)cnc1OC` returned a Ki of under 50 nM.
In turn, `COc1cc(C#Cc2sc(NC(=O)NCCOc3cccnc3)nc2C)cnc1OC` gave a Ki of under 50 nM.
In turn, `COc1ccc(OCCNC(=O)Nc2nc(C)c(C#Cc3ccncc3)s2)cc1` had a Ki of under 50 nM.
The result for `Cc1nc(NC(=O)NCCOc2cccnc2)sc1C#Cc1ccnc(Cl)c1` reads 50 to 250 nM; that for `Cc1nc(NC(=O)NCC[S+](C)[O-])sc1C#Cc1ccncc1` (stereo not given), under 50 nM; that for `COc1ccc(C#Cc2sc(NC(=O)NC[C@H](C)OCC3CC3)nc2C)cn1`, under 50 nM.
The result for `CCC(O)CNC(=O)Nc1nc(C)c(C#Cc2cncc(OC)c2)s1` (stereo not given) reads under 50 nM; that for `CC(=O)Nc1nc(C)c(C#Cc2sc(NC(=O)NCCOCC3CC3)nc2C)s1`, 50 to 250 nM; that for `Cc1nc(NC(=O)NCCc2cccnc2)sc1C#Cc1ccncc1`, under 50 nM.
On to `COc1cc(C#Cc2sc(NC(=O)NC[C@H](C)OCC3CC3)nc2C)cnc1OC`, for which the inhibition constant (Ki) was under 50 nM.
The value for `Cc1nc(NC(=O)NCCOc2ccccc2)sc1C#Cc1cccnc1` was under 50 nM; that for `CC(=O)Nc1nc(C)c(C#Cc2cncn2C)s1` was 50 to 250 nM; that for `CC(=O)Nc1nc(C)c(C#Cc2ccc(N)cc2)s1` was 50 to 250 nM.
The compound `Cc1nc(NC(=O)NCCOCC2CC2)sc1C#Cc1ccnc2ccccc12` yielded a Ki of under 50 nM.
`Cc1nc(NC(=O)NC[C@H](C)OCC2CC2)sc1C#Cc1ccc2ncccc2c1` displayed an inhibition constant (Ki) of under 50 nM.
`Cc1nc(NC(=O)NCCC(=O)NC(C)(C)C)sc1C#Cc1ccncc1` displayed a Ki of under 50 nM.
`COc1ccc(C#Cc2sc(NC(=O)NC[C@H](C)C(=O)NC(C)(C)C)nc2C)cn1` registered a Ki of under 50 nM.
The result for `CCc1cnc(CCNC(=O)Nc2nc(C)c(C#Cc3ccncc3)s2)s1` reads under 50 nM; that for `CC(=O)Nc1nc(C)c(C#Cc2cccnc2)s1`, 50 to 250 nM.
The result for `Cc1nc(NC(=O)NC[C@H](C)OCC2CC2)sc1C#Cc1ccc2nccnc2c1` reads under 50 nM.
Regarding `Cc1nc(NC(=O)CCC(=O)OC(C)(C)C)sc1C#Cc1ccncc1`, the Ki fell in the range of 50 to 250 nM.
As for `Cc1nc(NC(=O)NCCOCC2CC2)sc1C#Cc1ccc(Cl)nc1`, the Ki is 50 to 250 nM.
Consider `Cc1ccc(OCCNC(=O)Nc2nc(C)c(C#Cc3ccncc3)s2)cc1`, for which the inhibitory constant (Ki) is under 50 nM.
For the compound `COc1cc(C#Cc2sc(NC(=O)NCCOCC3CC3)nc2C)cnc1OC`, the Ki was under 50 nM.
The result for `COc1cc(C#Cc2sc(NC(=O)NCCn3cnc(C(F)(F)F)c3)nc2C)cnc1OC` reads under 50 nM.
Consider `Cc1nc(NC(=O)NCCOCC2CC2)sc1C#Cc1cncn1C`, for which the Ki was 50 to 250 nM.
The result for `Cc1nc(NC(=O)NCCOCC2CC2)sc1C#Cc1cnc(Cl)c(F)c1` reads 50 to 250 nM; that for `CCCO[C@@H](C)CNC(=O)Nc1nc(C)c(C#Cc2ccncc2)s1`, under 50 nM.
`COC(=O)CCCC(=O)Nc1nc(C)c(C#Cc2ccncc2)s1` showed a Ki of 50 to 250 nM.
The compound `Cc1nc(NC(=O)NCCc2ccncc2)sc1C#Cc1ccncc1` returned a Ki of 50 to 250 nM.
In turn, `Cc1nc(NC(=O)NCCOc2ccccc2)sc1C#Cc1ccncc1` gave an inhibition constant (Ki) of under 50 nM.
In turn, `COc1cccc(C#Cc2sc(NC(C)=O)nc2C)c1` displayed a Ki of 50 to 250 nM.
In turn, `Cc1nc(NC(=O)CCCC(=O)NC(C)(C)C)sc1C#Cc1ccncc1` registered a Ki of 50 to 250 nM.
`CC(=O)Nc1ccc(C#Cc2sc(NC(=O)NCCOCC3CC3)nc2C)cn1` returned a Ki of 50 to 250 nM.
For the compound `Cc1nc(NC(=O)NCC#N)sc1C#Cc1ccncc1`, the Ki was under 50 nM.
`CC(=O)Nc1nc(C)c(C#Cc2ccccc2C)s1` had a Ki of under 50 nM.
`CC(=O)Nc1nc(C)c(C#Cc2ccsc2)s1` displayed a Ki of 50 to 250 nM.
Take `COc1cncc(C#Cc2sc(NC(C)=O)nc2C)c1`: the Ki is under 50 nM.
As for `Cc1nc(NC(=O)NCCOCC2CC2)sc1C#Cc1cccnc1Cl`, the Ki is under 50 nM.
As for `CCn1cnc(CCNC(=O)Nc2nc(C)c(C#Cc3ccncc3)s2)c1`, the inhibitory constant (Ki) was under 50 nM.
As for `Cc1nc(NC(=O)NCCOCC2CC2)sc1C#Cc1cnc2ccccc2c1`, the Ki lay within 50 to 250 nM.
`Cc1nc(NC(=O)[C@@H]2CCC(=O)N2)sc1C#Cc1ccncc1` registered an inhibitory constant (Ki) of 50 to 250 nM.
The result for `Cc1nc(NC(=O)NCCC#N)sc1C#Cc1ccncc1` reads under 50 nM.

For orientation: Ki means a measure of affinity in units of concentration, obtained from inhibition or displacement.
